In one data set the test system is HeLa cells. The data set can be described thus: MTT cell viability assay, HeLa cells. Format: cell-based. Particulars: 400 μM, three days, absorbance 595 nm, three independent experiments. Here is the method:
(§1) We investigated the cell compatibility of 1 and 2 by incubation with two kinds of mammalian cells, HeLa and Saos-2 cells, using the 3-(4,5-dimethylthiazol-2-yl)-2,5-diphenyl tetrazolium bromide (MTT) assay. The cell viability of HeLa and Soas-2 cells after being incubated with 1 (400 μM) for three days are about 90% and 80%, respectively. […] To confirm that 1 and 2 convert from micelles to nanofibers in a cellular environment, we incubated of 1 or 2 at 500 μM in the lysates of HeLa cells (Figure S5, Supporting Information File 1) and examined the amount of each component in % by LC–MS. After 24 h incubation, 44% of 1 or 39% of 2, was cleaved to Nap-ffky, which self-assembles as part for the nanofibers. […] Then, we used confocal laser scanning microscopy (CLSM) to examine whether these compounds deliver RPE into HeLa cells. […]
(§2) Circular dichroism (CD) analysis : CD spectra were recorded ([…]) using a JASCO 810 spectrometer under a nitrogen atmosphere. […] The percentage of the secondary structures in different samples was calculated by the programs provided in DichroWeb. […]
(§3) reaction and to dissolve the purple formazan. After incubation of the cells at 37 ° C overnight, the absorbance of each well at 595 nm was measured in a multimode microplate reader. […]

Another data set has as its system Saos-2 cells. The data set can be described thus: MTT cell viability assay, Saos-2 cells. In kind it is cell-based. Conditions: 400 μM, three days, absorbance 595 nm, three independent experiments. The procedure:
as §1, §2, §3
A general note: Formazan colour is commonly taken as a measure of viable cells.

The target in data set [1] is proteinase K (Parengyodontium album, UniProt P06873). The data set can be described thus: Enzymatic proteolysis catalyzed by proteinase K, LC-MS. Particulars: for proteolytic products with proteinase K: 5 mM peptide, proteinase K 5 U/mL, Tris-HCl buffer pH 7.0, 24 h, LC-MS. Format: in vitro ADME. Here is the method:
After having obtained the peptides 1 and 2, we examined the enzymatic proteolysis of 1 and 2 catalyzed by proteinase K. We added proteinase K, a powerful endopeptidase, to the solutions of 1 and 2 (5 mM, pH 7.0, in Tris-HCl buffer). […] Then, we conducted a time-dependent CD analysis to examine the change of the secondary structural conformations of 1 and 2 during the proteolysis catalyzed by proteinase K in Tris-HCl buffer at pH 7.0. […] During the transition from micelles to fibrils, the CD signal at 210 nm reverses the sign, likely due to the self-assembly of Nap-ffky to helical fibrils. Analyzing the CD spectra by the Contin-LL analysis program, we estimated the percentage of each conformation, further confirming the trend and the assignment of the dominant conformation. As shown in Figure 2C and Figure 2F, the initial state of peptide 1 has more β-strand conformations than that of peptide 2. With increasing proteolysis time, the CD spectra indicate that the cleavage of 1 or 2 results in more assemblies that favor β-strand conformations (Figure 2D and Figure 2E). In addition, the ratio of the β-strand conformation resulted from the cleavage of 1 being slightly faster than that of 2.
Figure 2 A) LC–MS spectrum of the proteolytic products after 1 (5 mM) was incubated with proteinase K (5 U/mL) for 24 h. B) Time-dependent circular dichroism (CD) spectra of 1 incubated with proteinase K in Tris-HCl buffer at pH 7.0. C) CD simulation of the mixture from the spectra in B. D) LC–MS spectrum of the proteolytic products after 2 (5 mM) was incubated with proteinase K (5 U/mL) for 24 h. E) Time-dependent CD spectra of 2 incubated with proteinase K in Tris-HCl buffer at pH 7.0. F) CD simulation of the mixture from the spectra in E.

The format of data set [2] is in vitro ADME. Conditions: 500 μM peptide in HeLa cell lysate, 24 h, 37 °C, lysis buffer pH 7.4, LC-MS. Here is the method: as §1, with “cells. After mixing R-phycoerythrin (RPE), a red fluorescent protein, with 1 or 2 at different concentrations, we incubated the mixtures with HeLa cells for 2 h and 4 h.” for “cells.”
reaction and to dissolve the purple formazan. After incubation of the cells at 37 ° C overnight, the absorbance of each well at 595 nm was measured in a multimode microplate reader. Three independent experiments were performed, with an average ± […]
Confocal microscopy: Cells in the exponential growth phase were seeded in a glass-bottomed culture chamber at 1 × 10^5 cells/well. […]

In data set [3] the target is enterokinase (ENTK) (Homo sapiens, UniProt P98073). The data set can be described thus: Proteolysis by enterokinase (ENTK). In kind it is in vitro ADME. Conditions: Figures S3 and S4. From the text:
In addition, unlike the FLAG-tag-based branched peptides, 1 and 2 are proteolytic-resistant to enterokinase (ENTK, Figures S3 and S4, Supporting Information File 1).

Data set [4] deals with enterokinase (ENTK). Kind of data set: enterokinase (ENTK).
Data set [5] has as its system proteinase K. Kind of data set: proteinase K (5 U/mL) in Tris-HCl buffer, pH 7.0. Particulars: up to 24 h.
Data set [6] can be described thus: lysates of HeLa cells, in 10 mmol of lysis buffer at pH 7.4. Conditions: 37 °C, up to 24 h.

“Also recorded” adds a separate entry of the source. Residues, ends and D or L forms follow the SMILES beside them. *: point of attachment. X1 = O=C(Cc1ccc2ccccc2c1)N[C@H](Cc1ccccc1)C(=O)N[C@H](Cc1ccccc1)C(=O)N[C@H](CCCCN*)C(=O)N[C@H](Cc1ccc(O)cc1)C(=O)O

proteinase K (Parengyodontium album, UniProt P06873), sequence (P06873 106-384, species assumed): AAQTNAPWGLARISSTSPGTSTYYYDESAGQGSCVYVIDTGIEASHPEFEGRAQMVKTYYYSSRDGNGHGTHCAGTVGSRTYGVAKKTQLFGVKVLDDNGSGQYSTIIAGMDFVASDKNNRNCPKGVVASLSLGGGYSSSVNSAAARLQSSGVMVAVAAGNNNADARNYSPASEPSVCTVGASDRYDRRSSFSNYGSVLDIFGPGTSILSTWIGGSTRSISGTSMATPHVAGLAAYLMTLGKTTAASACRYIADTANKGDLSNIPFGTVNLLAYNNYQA
enterokinase (ENTK) (Homo sapiens, UniProt P98073), sequence (P98073 whole entry, species assumed): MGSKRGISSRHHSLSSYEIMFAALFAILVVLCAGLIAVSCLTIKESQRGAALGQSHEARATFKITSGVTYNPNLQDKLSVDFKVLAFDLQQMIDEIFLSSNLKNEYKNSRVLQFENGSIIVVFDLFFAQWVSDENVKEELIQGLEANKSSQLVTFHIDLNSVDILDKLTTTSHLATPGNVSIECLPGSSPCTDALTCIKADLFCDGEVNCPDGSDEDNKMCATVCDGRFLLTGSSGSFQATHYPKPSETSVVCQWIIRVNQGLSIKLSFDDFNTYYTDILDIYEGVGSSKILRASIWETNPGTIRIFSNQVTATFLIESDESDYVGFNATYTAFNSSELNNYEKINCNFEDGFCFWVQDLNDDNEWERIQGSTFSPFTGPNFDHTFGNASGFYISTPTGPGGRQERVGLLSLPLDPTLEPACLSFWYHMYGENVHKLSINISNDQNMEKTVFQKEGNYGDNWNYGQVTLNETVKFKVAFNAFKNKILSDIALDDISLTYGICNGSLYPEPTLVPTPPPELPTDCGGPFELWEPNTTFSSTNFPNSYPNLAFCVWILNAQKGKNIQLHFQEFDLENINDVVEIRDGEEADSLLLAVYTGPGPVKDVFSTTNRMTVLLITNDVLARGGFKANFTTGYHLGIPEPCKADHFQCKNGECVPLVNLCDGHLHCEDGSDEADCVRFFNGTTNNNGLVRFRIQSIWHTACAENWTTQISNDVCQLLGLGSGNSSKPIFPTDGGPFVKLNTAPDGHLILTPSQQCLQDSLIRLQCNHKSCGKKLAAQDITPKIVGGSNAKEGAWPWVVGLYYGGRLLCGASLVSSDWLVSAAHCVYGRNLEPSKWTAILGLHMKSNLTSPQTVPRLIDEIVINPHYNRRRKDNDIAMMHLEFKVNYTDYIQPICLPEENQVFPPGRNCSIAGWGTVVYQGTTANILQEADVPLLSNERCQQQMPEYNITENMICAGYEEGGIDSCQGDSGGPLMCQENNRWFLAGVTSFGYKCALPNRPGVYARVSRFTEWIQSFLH

Consider `CC[C@H](C)[C@H](NC(=O)[C@H](CC(C)C)NC(=O)[C@H](CC(C)C)NC(=O)[C@H](CC(=O)O)NC(=O)[C@H](CC(=O)O)NC(=O)[C@H](CC(=O)O)NC(=O)[C@H](CCC(=O)O)NC(=O)[C@@H](N)CC(=O)O)C(=O)NCC(=O)NCCCC[C@@H](NC(=O)[C@@H](Cc1ccccc1)NC(=O)[C@@H](Cc1ccccc1)NC(=O)Cc1ccc2ccccc2c1)C(=O)N[C@H](Cc1ccc(O)cc1)C(=O)O` [compound 1, Nap-ffk(NH2-DEDDDLLIG)y] (H-DEDDDLLIG-X1), for which the cell viability result in the data set on HeLa cells is recorded as “about 90%”; with Saos-2 cells it was about 80%. Also, the “proteolytic products with proteinase K” value at proteinase K [1] is “undergoes proteolytic cleavage to form DEDDDLLIG and Nap-ffky”. Besides, the “amount cleaved to Nap-ffky” value in data set [2] was 44%. Besides, on enterokinase (ENTK) [3], the “resistance to proteolysis by enterokinase” value was “proteolytic-resistant”.

For the compound `CC[C@H](C)[C@H](NC(=O)[C@H](CC(C)C)NC(=O)[C@H](CC(C)C)NC(=O)[C@H](CC(=O)O)NC(=O)[C@H](CC(=O)O)NC(=O)[C@H](CC(=O)O)NC(=O)[C@H](CCC(=O)O)NC(=O)[C@H](CC(=O)O)NC(C)=O)C(=O)NCC(=O)NCCCC[C@@H](NC(=O)[C@@H](Cc1ccccc1)NC(=O)[C@@H](Cc1ccccc1)NC(=O)Cc1ccc2ccccc2c1)C(=O)N[C@H](Cc1ccc(O)cc1)C(=O)O` [compound 2, Nap-ffk(AcNH-DEDDDLLIG)y] (Ac-DEDDDLLIG-X1), the “proteolytic products with proteinase K” value at proteinase K [1] is “proteolytically hydrolyzes into four parts, including DEDDDLLIG, DEDDDLL, DEDDDL, and Nap-ffky”. The “stability towards the proteolysis (acetylated versus non-acetylated branch)” value on proteinase K [1] (proteinase K, compared with 1) was “enhanced stability towards the proteolysis”. Besides, the “amount cleaved to Nap-ffky” value in data set [2] worked out at 39%. Moreover, the “resistance to proteolysis by enterokinase” value at enterokinase (ENTK) [3] is given as “proteolytic-resistant”.

On to Nap-ffk(AcNH-DEDDDLLIG)y, for which, in the data set with enterokinase (ENTK) [4], the not cleaved result is reported as “proteolytic-resistant to enterokinase”. Also, the fragment found result with proteinase K [5] was “Nap-ffky, 24 h”; in data set [6], “Nap-ffky, 24 h”.

On to Nap-ffk(NH2-DEDDDLLIG)y, for which, in the data set with enterokinase (ENTK) [4], the not cleaved result is “proteolytic-resistant to enterokinase”. The fragment found entry in the data set with proteinase K [5] was “DEDDDLLIG, 24 h; also recorded: Nap-ffky, 24 h”; in data set [6], “Nap-ffky, 24 h”.

The term cell viability denotes the share of living cells, or the viability signal relative to a control. Lower therefore signals a greater loss of cells.
